Columns and labels:
HDAC-4 = HDAC-4 expression in primary CD4 T cells (FIG. 11); format: cell-based
Method: (§1) FIG. 11. […] Proteosome inhibitors were analyzed for the ability to alter the expression of HDAC. Bortezomib and ixazomib decreased HDAC-1, HDAC-3, and HDAC-4 expression in primary CD4 T cells.

UPR pathway [1] = experiment: UPR pathway activation in J Lat cells: phospho PERK, phospho IRE1, JNK (FIG. 12); format: cell-based; settings: bortezomib (10 nM) or ixazomib (50 nM)
Method: FIG. 12. J-LAT-10.6 or Jurkat cells were treated with bortezomib (10 nM) or ixazomib (50 nM) for the indicated times. Bortezomib and ixazomib induced phospho PERK, phospho IRE1, and JNK activation in J Lat cells, indicating the activation of the UPR pathway.

[2] = tested on: J-Lat cells (a model of HIV latency using GFP HIV); experiment: J-Lat cells time course flow cytometry (FIG. 8); format: cell-based; settings: analyzed at 24, 48, and 72 hours
Method: J-Lat cells (a model of HIV latency using GFP HIV) were treated with bortezomib or ixazomib at the indicated doses and analyzed at 24, 48, and 72 hours.

HIV-LTR = experiment: Luc expression in primary CD4 T cells infected with HIV luc or transfected with HIV-LTR Luc (FIG. 9); format: cell-based; settings: primary CD4 T cells infected with HIV luc or transfected with HIV-LTR Luc and TK renilla
Method: Primary CD4 T cells infected with HIV luc (top panel) or primary CD4 T cells transfected with HIV-LTR Luc and co-transfected TK renilla (bottom panel) were treated with the indicated doses of bortezomib or ixazomib, and analyzed for Luc expression as a measure of HIV reactivation.

HDAC-3 = HDAC-3 expression in primary CD4 T cells (FIG. 11); format: cell-based
Method: as §1

[3] = tested on: CD4 T cells from an HIV positive patient with ART suppressed HIV replication; experiment: Flow cytometry of CD4 T cells from an HIV positive patient for intracellular p24 and activated caspase 3 (FIG. 7); format: cell-based, human; settings: 48 hours
Method: FIG. 7 contains flow cytometry results of CD4 T cells from an HIV positive patient with ART suppressed HIV replication. Cells were treated with bortezomib or MLN-2238 (ixazomib) at the indicated doses and analyzed 48 hours later for intracellular p24 expression (as a measure of HIV reactivation), and for activated caspase 3 expression (as a measure of cell death).

UPR pathway [4] = experiment: UPR pathway activation in J Lat cells: ATF4 and CHOP nuclear translocation, ATF6 cleavage (FIG. 13); format: cell-based; settings: bortezomib (10 nM) or ixazomib (50 nM)
Method: FIG. 13. J-LAT-10.6 or Jurkat cells were treated with bortezomib (10 nM) or ixazomib (50 nM) for the indicated times. Bortezomib and ixazomib induced ATF4 and CHOP translocation into the nucleus, and ATF6 cleavage in J Lat cells, indicating the activation of the UPR pathway.

[5] = tested on: J-Lat cells (a model of HIV latency, using GFP tagged HIV); experiment: J-Lat cells flow cytometry for HIV GFP expression and activated caspase 3 (FIG. 6); format: cell-based; settings: 24 hours, bortezomib 1, 10, or 20 nM, MLN-2238 (ixazomib) 10 or 50 nM
Method: FIG. 6 contains flow cytometry results of J-Lat cells (a model of HIV latency, using GFP tagged HIV) treated with nothing, bortezomib (1, 10, or 20 nM), or MLN-2238 (ixazomib; 10 or 50 nM) and analyzed 24 hours later for activated caspase 3 expression and for HIV expression.

HDAC-1 = HDAC-1 expression in primary CD4 T cells (FIG. 11); format: cell-based
Method: as §1

CC(C)C[C@H](NC(=O)[C@H](Cc1ccccc1)NC(=O)c1cnccn1)B(O)O [bortezomib, N-pyrazinecarbonyl-L-phenylalanine-L-leucine boronic acid]
HDAC-4 expression (HDAC-4): decreased | JNK activation (UPR pathway [1]): induced | phospho IRE1 (UPR pathway [1]): induced | phospho PERK (UPR pathway [1]): induced | HIV reactivation from latency [2]: caused HIV reactivation from latency | HIV reactivation (Luc expression) (HIV-LTR): independently reactivated HIV | HDAC-3 expression (HDAC-3): decreased | HIV reactivation (intracellular p24 expression) [3]: caused HIV reactivation as indicated by increased HIV p24 expression | death of HIV positive cells (activated caspase 3 expression in p24 positive cells) [3]: caused HIV positive cells to die | ATF4 translocation into the nucleus (UPR pathway [4]): induced | ATF6 cleavage (UPR pathway [4]): induced | CHOP translocation into the nucleus (UPR pathway [4]): induced | HIV reactivation (HIV GFP expression) [5]: caused HIV reactivation as indicated by increased HIV GFP expression | death of HIV GFP positive cells (activated caspase 3 expression) [5]: caused HIV GFP positive cells to die | HDAC-1 expression (HDAC-1): decreased
